# Tested on: T1, FanCXE1
# T1 construct: full-length, 981 bp ORF (326 residues from ORF length), 37 kDa; N-terminal GST fusion (pGEX-4T-1), tag kept, 64 kDa; E. coli, semipurified on GST-sepharose; Gly-82-Gly-83 oxyanion hole
# Assay: colorimetric naphthol release (DBLS reagent, […] nm)
# Assay type: biochemical, Fragaria x ananassa
# Details: optimum pH (7-7.5) and temperature (25-30°C), 20 min; semipurified GST fusion
row,Compound,Km [µM]
1,CC(=O)Oc1cccc2ccccc12 [α-Naphthyl acetate],678 ± 170
2,CCCC(=O)Oc1cccc2ccccc12 [α-Naphthyl butyrate],1580 ± 190
3,CCCCCC(=O)Oc1ccc2ccccc2c1 [β-Naphthyl hexanoate],572 ± 250

# — PMC9249579, “Strawberry fruit FanCXE1 carboxylesterase is involved in the catabolism of volatile esters during the ripening process” (Horticulture Research, 2022)
